# Laboratory results reported in publication PMC11643494, “Structure–Activity Relationship Studies in a Series of 2-Aryloxy-N-(pyrimidin-5-yl)acetamide Inhibitors of SLACK Potassium Channels” (Molecules, 2024).
# Tests used:
# [1] = molecular target: T1, KV7.2 (Homo sapiens, UniProt O43526); assay: Tl+-flux assay in HEK-293 cells, KV7.2; type: cell-based; conditions: HEK293; 10 µM test compound; relative to control XE991; read-out: Percent Inhibition ± SEM, KV7.2
# T1 construct: expressed in transfected cells; host or cells: HEK293
# Excerpt: (§1) Having executed our plan to prepare analogs across the identified regions of the chemotype (Figure 2), we identified two analogs for further profiling and evaluation. […] Desiring to add a second compound with some measure of structural differences, we also chose another submicromolar SLACK inhibitor 66 (VU0936154). Whereas 40 contains an ether linker and a halogenated phenyl group in the eastern region, […] contains an N-methyl linker and a phenyl group with a more polar cyano substituent. We first screened these analogs at 10 µM versus our in-house panel of ion channel targets using Tl^+-flux assays in HEK-293 cells expressing the human target of interest. […] Included in this set are Slo family members SLICK and two isoforms of Maxi-K, as well as several different K^+, Na^+, and Ca^2+ channels (Table 6). […] Of note was the excellent selectivity versus the broader panel of targets for both compounds, including versus the hERG channel.
# (§2) Stably transfected monoclonal HEK293 cell lines expressing SLICK, Maxi-K α1/β3, Maxi-K α1/β4, CaV3.2, GIRK 1/2, KV2.1, KV7.2, NaV1.7, and TASK-1 were generated as previously described. […]
# (§3) The Tl^+ flux assays were conducted as previously described, with modifications optimized for individual cell lines as described below. […] Cell plates were then loaded onto a Panoptic kinetic imaging plate reader (WaveFront Biosciences, Franklin, TN, USA). […]
# [2] = molecular target: T2, TASK-1 (Homo sapiens, UniProt O14649); assay: Tl+-flux assay in HEK-293 cells, TASK-1; type: cell-based; conditions: HEK293; 10 µM test compound; relative to control bepridil; read-out: Percent Inhibition ± SEM, TASK-1
# T2 construct: expressed in transfected cells; host or cells: HEK293
# T2 sequence (O14649 whole entry): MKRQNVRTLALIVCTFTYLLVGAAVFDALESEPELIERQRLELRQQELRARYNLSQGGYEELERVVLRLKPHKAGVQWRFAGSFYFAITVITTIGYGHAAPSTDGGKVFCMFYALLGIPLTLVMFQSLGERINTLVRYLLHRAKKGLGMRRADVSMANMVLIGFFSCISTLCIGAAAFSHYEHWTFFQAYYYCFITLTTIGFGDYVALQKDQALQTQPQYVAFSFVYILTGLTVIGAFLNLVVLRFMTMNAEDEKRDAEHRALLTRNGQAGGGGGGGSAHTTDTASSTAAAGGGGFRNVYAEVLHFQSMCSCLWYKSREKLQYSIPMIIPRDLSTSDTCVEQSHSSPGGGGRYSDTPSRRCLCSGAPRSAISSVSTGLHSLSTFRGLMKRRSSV
# Excerpt: as §1, §2, §3
SMILES,inhibition at 10 µM [1] [%],inhibition at 10 µM [2] [%]
CC(C)(Oc1ccc(Cl)cc1)C(=O)Nc1cnc(Oc2c(F)cccc2F)nc1 [Analog 40],1.3 ± 1,24 ± 3.7
CN(c1ccc(C#N)cc1)c1ncc(NC(=O)C(C)(C)Oc2ccc(Cl)cc2)cn1 [Analog 66],1.6 ± 0.94,18 ± 2
